Laboratory results reported in ChEMBL document CHEMBL1201862, “PubChem BioAssay data set” (2004).
Where “and” joins values, the source holds several entries; their conditions need not be identical. Equal entries are not always repeated.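 Tested at 5 concentrations; 48 h exposure; 96-well plates; endpoints linearly interpolated, else capped at highest concentration. GI50 = concentration required for 50% inhibition of growth.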 Calls of active or inactive are those of the source. No stated cut-off is given here; in the data, active = GI50 up to about 1.1 µM and inactive = higher.

What was measured:
Assay in all cases: NCI-60 cell line screen, 48 h
[1] = system: M19-MEL
[2] = system: SNB-78
[3] = system: KM-20L2
[4] = system: HOP-18
[5] = system: XF498
[6] = system: DLD-1
[7] = system: DMS-114
[8] = system: DMS-273
[9] = system: RXF 631

| Compound | GI50 [1] | GI50 [2] | GI50 [3] | GI50 [4] | GI50 [5] | GI50 [6] | GI50 [7] | GI50 [8] | GI50 [9] |
| --- | --- | --- | --- | --- | --- | --- | --- | --- | --- |
| CSc1nnc2n1-c1ccccc1SCC2 | > 100 µM (inactive) | > 100 µM (inactive) | > 100 µM (inactive) | > 100 µM (inactive) | > 100 µM (inactive) | > 100 µM (inactive) | > 100 µM (inactive) | > 100 µM (inactive) | – |
| COc1ccc(/C=c2/sc3n(c2=O)NC(c2ccc(Cl)cc2)NN=3)cc1 (stereo not drawn) | > 100 µM (inactive) | > 100 µM (inactive) | > 100 µM (inactive) | – | 51.8 µM (inactive) | > 100 µM (inactive) | 58.5 µM (inactive) | > 100 µM (inactive) | – |
| C1=Cc2nc1c(-c1ccccc1)c1nc(c(-c3ccccc3)c3ccc([nH]3)c(-c3ccccc3)c3ccc([nH]3)c2-c2ccccc2)C=C1 [TETRAPHENYLPORPHYRIN] | > 100 µM (inactive) | > 100 µM (inactive) | > 100 µM (inactive) | > 100 µM (inactive) | – | > 100 µM (inactive) | > 100 µM (inactive) | > 100 µM (inactive) | > 100 µM (inactive) |
| Cc1nc(-c2nc(C)c(C(=O)NNC(=O)C[n+]3ccccc3)s2)sc1C(=O)NNC(=O)C[n+]1ccccc1 | > 100 µM (inactive) | 54.8 µM (inactive) | > 100 µM (inactive) | – | – | 19.3 µM (inactive) | 66.8 µM (inactive) | – | – |
| Nc1nnc2c(-c3ccccc3)n[nH]c2n1 | – | 49.3 µM (inactive) | 49.8 µM (inactive) | – | – | – | > 100 µM (inactive) | 50.9 µM (inactive) | – |
| COC(=O)CC(C(C(C)=O)C(=O)OCc1ccccc1)N1C(=O)OC(c2ccccc2)C1c1ccccc1 (stereo not drawn) | 85.1 µM (inactive) and 73.8 µM (inactive) | – | – | – | 67.1 µM (inactive) | 64.7 µM (inactive) | 30.5 µM (inactive) and 39.4 µM (inactive) | > 100 µM (inactive) and 78.5 µM (inactive) | 89.7 µM (inactive) |
| CNC(=O)NCCCC(NC(C)=O)C(=O)NCc1ccccc1 (stereo not drawn) | > 100 µM (inactive) | > 100 µM (inactive) | > 100 µM (inactive) | – | – | > 100 µM (inactive) | > 100 µM (inactive) | > 100 µM (inactive) | > 100 µM (inactive) |
| CCCCOC1CC2(c3ccc(OC)cc3)C(=O)c3ccccc3N2O1 (stereo not drawn) | > 10 µM (inactive) | > 10 µM (inactive) | > 10 µM (inactive) | – | > 10 µM (inactive) | – | 30 µM (inactive) | > 10 µM (inactive) | > 10 µM (inactive) |
| COc1ccc(OC)c(/C=C/[N+](=O)[O-])c1 | 2.39 µM (inactive) | 6.84 µM (inactive) | 4.69 µM (inactive) | 1.85 µM (inactive) | 2.94 µM (inactive) | 2.88 µM (inactive) | 4.74 µM (inactive) | 2.61 µM (inactive) | 2.83 µM (inactive) |
| CC1(C)OC2C(O1)[C@H]1OC(C(Cl)(Cl)Cl)=N[C@H]1C(I)[C@H]2N1C(=O)c2ccccc2C1=O (stereo partly drawn) | 69.8 µM (inactive) | 73.3 µM (inactive) | 60.4 µM (inactive) | > 100 µM (inactive) | – | > 100 µM (inactive) | 30.6 µM (inactive) | 52.1 µM (inactive) | – |
| NCCCC1NC(=O)/C(=C(O)/C=C/C2CCC[C@@H]2CC2SCCS2)C1=O (stereo partly drawn) | > 100 µM (inactive) | – | > 100 µM (inactive) | 82.6 µM (inactive) | – | > 100 µM (inactive) | 86.3 µM (inactive) | 74.8 µM (inactive) | – |
| COC(=O)CSc1ccccc1 | > 100 µM (inactive) | > 100 µM (inactive) | > 100 µM (inactive) | > 100 µM (inactive) | > 100 µM (inactive) | > 100 µM (inactive) | – | > 100 µM (inactive) | > 100 µM (inactive) |
| CC(C)OP(=S)(NC(=S)c1ccccc1)OC(C)C | – | > 100 µM (inactive) | > 100 µM (inactive) | – | > 100 µM (inactive) | > 100 µM (inactive) | 78 µM (inactive) | > 100 µM (inactive) | – |
| COc1ccc(NCc2cc(OC)c(OC)c(OC)c2)cc1 | – | – | 0.238 µM (active) | – | – | 0.421 µM (active) | – | 0.178 µM (active) | – |
| c1ccc2c(CNCCCCCCCCNCc3cccc4ccccc34)cccc2c1 | 1.73 µM (inactive) | 2.24 µM (inactive) | 1.75 µM (inactive) | 5.41 µM (inactive) | 1.79 µM (inactive) | 2.11 µM (inactive) | 1.91 µM (inactive) | 2.01 µM (inactive) | – |
| CCCCCCCCCCCCCP(=O)(O)OCC | > 100 µM (inactive) | > 100 µM (inactive) | > 100 µM (inactive) | > 100 µM (inactive) | – | > 100 µM (inactive) | > 100 µM (inactive) | – | > 100 µM (inactive) |
| COC1/C(=C\C(=O)OC(C)(C)C)c2ccccc2N1C(C)=O (stereo not drawn) | > 100 µM (inactive) | > 100 µM (inactive) | > 100 µM (inactive) | > 100 µM (inactive) | 57.5 µM (inactive) | > 100 µM (inactive) | 54.3 µM (inactive) | > 100 µM (inactive) | > 100 µM (inactive) |
| CC(CN1CC(=O)NC(=O)C1)N1CC(=O)NC(=O)C1 (stereo not drawn) [RAZOXANE] | 299 µM (inactive) | 449 µM (inactive) | 174 µM (inactive) | 277 µM (inactive) | 234 µM (inactive) | 245 µM (inactive) | 67.9 µM (inactive) | 513 µM (inactive) | – |
| O=C(O)Cn1c(=O)[nH]c(=O)c2c1ncn2Cc1ccccc1 | > 100 µM (inactive) | > 100 µM (inactive) | > 100 µM (inactive) | – | > 100 µM (inactive) | > 100 µM (inactive) | > 100 µM (inactive) | > 100 µM (inactive) | > 100 µM (inactive) |
| COc1cc2cc[n+]3c4cc(OC)c(OC)cc4c(C)cc3c2cc1OC | > 100 µM (inactive) | > 100 µM (inactive) | > 100 µM (inactive) | > 100 µM (inactive) | > 100 µM (inactive) | > 100 µM (inactive) | > 100 µM (inactive) | > 100 µM (inactive) | > 100 µM (inactive) |
| C=CCN1/C(=C2\SC(=S)N(c3ccc(C)cc3)C2=O)Sc2c1nc[nH]c2=O | > 100 µM (inactive) | > 100 µM (inactive) | > 100 µM (inactive) | – | > 100 µM (inactive) | > 100 µM (inactive) | 76.9 µM (inactive) | > 100 µM (inactive) | – |
| O=C(c1ccccc1)C1OC12C(=O)Nc1ccccc12 (stereo not drawn) | 30.4 µM (inactive) | 43.5 µM (inactive) | 28.1 µM (inactive) | – | 26.2 µM (inactive) | 32.7 µM (inactive) | 27 µM (inactive) | 38 µM (inactive) | 46 µM (inactive) |
| Nc1ncnc2c1ncn2C1CC(OCc2ccccc2[N+](=O)[O-])C(CO)O1 (stereo not drawn) | 16.1 µM (inactive) | 18.2 µM (inactive) | 22.2 µM (inactive) | 26.6 µM (inactive) | 42.2 µM (inactive) | 23.7 µM (inactive) | 16.4 µM (inactive) | 18.4 µM (inactive) | – |
| O=C1[C@@H]2C(c3ccccc3F)=NO[C@@H]2C(=O)N1c1ccc(Cc2ccc(N3C(=O)[C@H]4C(c5ccccc5F)=NO[C@H]4C3=O)cc2)cc1 | > 100 µM (inactive) | > 100 µM (inactive) | > 100 µM (inactive) | > 100 µM (inactive) | > 87.3 µM (inactive) | > 100 µM (inactive) | > 100 µM (inactive) | > 100 µM (inactive) | > 100 µM (inactive) |
| Nc1nc(N)c(CCCCc2ccc([N+](=O)[O-])cc2)c(N)n1 | > 100 µM (inactive) | > 100 µM (inactive) | 36.1 µM (inactive) | > 100 µM (inactive) | > 100 µM (inactive) | 27 µM (inactive) | 20.8 µM (inactive) | 11.6 µM (inactive) | – |
| CCOC(=O)CCn1ncc(Cl)c(Cl)c1=O | 2.58 µM (inactive) | 6.22 µM (inactive) | 14.2 µM (inactive) | 3.99 µM (inactive) | 20.5 µM (inactive) | 5.5 µM (inactive) | 2.1 µM (inactive) | 9.46 µM (inactive) | 2.97 µM (inactive) |
| COc1nc(/C=N/NC(N)=S)nc(OC)n1 | 65.3 µM (inactive) | > 100 µM (inactive) | 35.4 µM (inactive) | > 100 µM (inactive) | > 100 µM (inactive) | > 100 µM (inactive) | 47.5 µM (inactive) | 56.9 µM (inactive) | 44.2 µM (inactive) |
| O=C1/C(=C\c2ccccc2)C2/C(=C\c3ccccc3)C(=O)/C(=C\c3ccccc3)C2/C1=C\c1ccccc1 (stereo not drawn) | 1.53 µM (inactive) | – | 1.78 µM (inactive) | 48 µM (inactive) | – | 1.22 µM (inactive) | 1.73 µM (inactive) | 0.964 µM (active) | 3.12 µM (inactive) |
| Cc1cc(N(CCC#N)CCC#N)ccc1/C=C1\N=C(c2cc([N+](=O)[O-])ccc2Cl)N(c2cccc(Cl)c2)C1=O | > 100 µM (inactive) | > 100 µM (inactive) | > 100 µM (inactive) | > 100 µM (inactive) | – | > 100 µM (inactive) | > 100 µM (inactive) | > 100 µM (inactive) | > 100 µM (inactive) |
